Test results: ChEMBL document CHEMBL5236622, “Krasilnikolides A and B and Detalosylkrasilnikolide A, Cytotoxic 20-Membered Macrolides from the Genus Krasilnikovia: Assignment of Anomeric Configuration by J-Based Configuration Analysis” (J Nat Prod, 2022)
Converted amounts (≈) assume the structure as drawn.

How the values were obtained:
[1] = test system: Kocuria rhizophila; assay: Antibacterial activity against Kocuria rhizophila ATCC9341 assessed as inhibition of bacterial growth incubated for 20 hrs by liquid microculture method; assay type: functional
[2] = test system: Staphylococcus aureus; assay: Antibacterial activity against Staphylococcus aureus FDA209P JC-1 assessed as inhibition of bacterial growth incubated for 20 hrs by liquid microculture method; assay type: functional
[3] = test system: P388; assay: Cytotoxicity against mouse P388 cells assessed as inhibition of cell growth incubated for 48 hrs by MTT assay; assay type: functional, cell-based; settings: P388, 48 h

| Structure (SMILES) | MIC [1] [µg/mL] | MIC [2] [µg/mL] | IC50 [3] [µM] |
| --- | --- | --- | --- |
| C/C=C(\C)[C@H]1OC(=O)[C@H](C)[C@@H](O[C@@H]2O[C@@H](C)[C@@H](O)[C@@H](O)[C@H]2O)/C(C)=C/C=C/[C@H](C)C/C(C)=C/[C@@H](C)[C@H](O)C[C@@H](O)/C(C)=C/[C@H]1C | 25 (≈ 39.4 µM) | 50 (≈ 78.8 µM) | 13.9 |
| C/C=C(\CC)[C@H]1OC(=O)[C@H](C)[C@@H](O[C@@H]2O[C@@H](C)[C@@H](O)[C@@H](O)[C@H]2O)/C(C)=C/C=C/[C@H](C)C/C(C)=C/[C@@H](C)[C@H](O)C[C@@H](O)/C(C)=C/[C@H]1C | 25 (≈ 38.5 µM) | – | 8.4 |
| C/C=C(\C)[C@H]1OC(=O)[C@H](C)[C@@H](O)/C(C)=C/C=C/[C@H](C)C/C(C)=C/[C@@H](C)[C@H](O)C[C@@H](O)/C(C)=C/[C@H]1C | 25 (≈ 51.2 µM) | – | 3.9 |
